According to patent US5856350A, “3-phenyl-1,4-dialkyl-1,2,4-triazolium salts and their use as antidepressants” (Hoechst Marion Roussel, Inc., priority 1996, dated 1999):
Read-outs that look alike come from different tables or passages of the source.

Legend:
reserpine-induced ptosis = experiment: Prevention of reserpine-induced ptosis in mice; type: in vivo; conditions: Mus musculus, iv, reserpine 2 mg/kg i.v.
Method: In this assay, test groups of weighed mice are housed individually in wire mesh cages and administered test compound or vehicle. At a selected time thereafter, reserpine is administered as a 0.2 mg/ml solution in dilute acetic acid at a dose of 2 mg/kg intravenously into a tail vein. In each assay the animals are examined individually in a Plexiglas® cylinder 90 minutes later. Prevention or delay in ptosis is considered significant if the average closure of both eyes is less than 50% after observing for 30 seconds.

[1] = tested on: Ro 4-1284-induced hypothermia; experiment: Antagonism to Ro 4-1284-induced hypothermia; type: in vivo; conditions: male mice, Ro 4-1284 20 mg/kg i.p.; for ED50: Mus musculus, ip
Method: Another assay utilized to evaluate antidepressant activity is testing for the antagonism to Ro 4-1284*--induced hypothermia. (*Niemegeers, Carlos, J. E. "Antagonism of Reserpine--Like Activity", edited by S. Fielding and Lal, published by Futura, pg. 73-98.) In this test, groups of male mice are weighed and housed individually in wire mesh cages. The rectal temperature of each mouse is recorded and the test compound or vehicle is then administered. […] Mice are then placed in a cold room (36° F.) for 30 minutes, and then returned to room temperature for 30 minutes. At this time (60 minutes after Ro 4-1284 administration) the rectal temperature of each mouse is again recorded. […] The final temperatures of control groups of ten Ro 4-1284-treated mice from a number of experiments are combined to form an "historic control" of 100 mice. This control is updated periodically by replacement of the oldest data.

LD50 = conditions: in vivo; Table I; species and route not given
Description: The results of testing a number of compounds of formula I for the effects summarized above, as well as their LD50, are summarized in Table I.

[2] = tested on: depression; neurodegeneration; conditions: prior art compound; cited from earlier work
[3] = Metabolite identification in the urine of test animals
[4] = 1 h, 60 minute pre-treatment time, read-out: ED50 for prevention of reserpine-induced ptosis
[5] = 1 h, 60 minute pre-treatment time, i.p., read-out: ED50 for antagonism of Ro 4-1284-induced hypothermia
[6] = Table I, pre-treatment time and route of test compound not given, read-out: Reserpine-Induced Ptosis ED50
[7] = Table I, two determinations listed separately where marked *, read-out: Ro 4-1284 Induced Hypothermia ED50

Row | Compound | ED50 [1, 5] | LD50 (LD50) | ED50 (reserpine-induced ptosis; [6]) | ED50 [1, 7] | further results
1 | CN(C)CCCN1c2ccccc2CCc2ccccc21 [imipramine, reference compound] | 1.8 mg/kg |  |  |  | ED50 (reserpine-induced ptosis; [4]): 4.89 mg/kg
2 | Cn1c[n+](C)nc1-c1ccccc1F [Rn 2-F--] |  | 100 to 200 mg/kg | 0.28 mg/kg | 0.74 mg/kg | Ro 4-1284 Induced Hypothermia ED50 ([1]; Table I, two determinations listed separately where marked *, 20 mg/kg): 0.58 mg/kg
3 | Cn1c[n+](C)nc1-c1ccc(I)cc1 [Rn 4-I--] |  | 100 to 200 mg/kg | 2.82 mg/kg | > 6.25 mg/kg | 
4 | Cn1nc(-c2cccc(F)c2)n(C)c1=S [5-(3-fluorophenyl)-2,4-dimethyl-3H-1,2,4-triazole-3-thione] |  |  |  |  | known antidepressant and neuroprotective activity [2]: antidepressant activity as well as activity in tests indicative of protection from neurodegeneration
5 | Cn1c[n+](C)nc1-c1ccc(Cl)cc1 [Rn 4-Cl--, 3-(4-chlorophenyl)-1,4-dimethyl-1,2,4-triazolium hydrosulfate] |  | 100 to 200 mg/kg | 0.09 mg/kg | 0.51 mg/kg | ED50 (reserpine-induced ptosis; [4]): 0.09 mg/kg
6 | COc1c(F)cccc1-c1n[n+](C)cn1C [3-F-2-CH3 O--] |  | 100 to 200 mg/kg | 1.31 mg/kg | 2 mg/kg | 
7 | Cn1c[n+](C)nc1-c1ccc(Br)cc1 [Rn 4-Br--] |  | 200 to 400 mg/kg | 0.23 mg/kg | 0.81 mg/kg | 
8 | CNCCCN1c2ccccc2CCc2ccccc21 [desipramine, reference compound] | 0.1 mg/kg |  |  |  | 
9 | CC(Cc1ccccc1)NN (stereo not drawn) [catron, reference compound] | 0.7 mg/kg |  |  |  | 
10 | Cn1c[n+](C)nc1-c1c(F)cccc1F [2,6-F2 --] |  | 100 to 200 mg/kg | 5.34 mg/kg | 0.58 mg/kg | 
11 | Cn1c[n+](C)nc1-c1cccc(F)c1 [Rn 3-F--, 3-(3-Fluorophenyl)-1,4-dimethyl-1,2,4-triazolium hydrosulfate] | 0.34 mg/kg | 200 to 400 mg/kg | 0.19 mg/kg | 0.34 mg/kg | 
12 | COc1ccccc1-c1n[n+](C)cn1C [2-CH3 O--] |  | 50 to 100 mg/kg | > 12.5 mg/kg | > 3.12 mg/kg | 
13 | Cn1c[n+](C)nc1-c1cccc(F)c1 [3-(3-fluorophenyl)-1,4-dimethyl-1,2,4-triazolium ion] |  |  |  |  | urinary metabolite of 5-(3-fluorophenyl)-2,4-dimethyl-3H-1,2,4-triazole-3-thione [3]: identified in the urine of test animals as a metabolite
